According to PubChem BioAssay AID1845209 (Molecular Pharmacology Branch, DTP, NCI, 2023):

Test system: NCI-H211 tumor spheroids, viability percent test/control
Assay: Anticancer human tumor NCI-H211 cell line growth inhibition;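 note: spheroids exposed to agents for seven days before readout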
Details: spheroids with HUVEC and MSC; for IC50: curve of first compound; for viability, T/C: stronger effect = lower value
Outline: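 Complex tumor spheroids combined malignant cells with endothelial cells and mesenchymal stem cells. DNA-damaging drugs and DNA repair inhibitors were tested alone and in combination, at half-log dilutions down from clinical Cmax (top 10 microM if Cmax unknown), 0.25% DMSO final.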

[1] = second compound 0.003 µM, first compound 0.0316 µM
[2] = second compound 0.003 µM, first compound 0.1 µM
[3] = second compound 0.003 µM, first compound 0.316 µM
[4] = second compound 0.003 µM, first compound 1 µM
[5] = second compound 0.003 µM, first compound 3.16 µM
[6] = second compound 0.003 µM, first compound 10 µM
[7] = second compound 0.00949 µM, first compound 0.0316 µM
[8] = second compound 0.00949 µM, first compound 0.1 µM
[9] = second compound 0.00949 µM, first compound 0.316 µM
[10] = second compound 0.00949 µM, first compound 1 µM
[11] = second compound 0.00949 µM, first compound 3.16 µM
[12] = second compound 0.00949 µM, first compound 10 µM
[13] = second compound 0.03 µM, first compound 0.0316 µM
[14] = second compound 0.03 µM, first compound 0.1 µM
[15] = second compound 0.03 µM, first compound 0.316 µM
[16] = second compound 0.03 µM, first compound 1 µM
[17] = second compound 0.03 µM, first compound 3.16 µM
[18] = second compound 0.03 µM, first compound 10 µM
[19] = second compound 0.0949 µM, first compound 0.0316 µM
[20] = second compound 0.0949 µM, first compound 0.1 µM
[21] = second compound 0.0949 µM, first compound 0.316 µM
[22] = second compound 0.0949 µM, first compound 1 µM
[23] = second compound 0.0949 µM, first compound 3.16 µM
[24] = second compound 0.0949 µM, first compound 10 µM
[25] = second compound 0.3 µM, first compound 0.0316 µM
[26] = second compound 0.3 µM, first compound 0.1 µM
[27] = second compound 0.3 µM, first compound 0.316 µM
[28] = second compound 0.3 µM, first compound 1 µM
[29] = second compound 0.3 µM, first compound 3.16 µM
[30] = second compound 0.3 µM, first compound 10 µM

For `CC1COCCN1c1cc(-c2ccnn2C)c2ccnc(-c3ccn[nH]3)c2n1` (stereo not given) + CC[C@@]1(O)C(=O)OCc2c1cc1n(c2=O)Cc2cc3c(CN(C)C)c(O)ccc3nc2-1, the IC50 (second compound 0.003 µM) was under 31.6 nM, the IC50 (second compound 0.00949 µM) was under 31.6 nM and the IC50 (second compound 0.03 µM) was under 31.6 nM. It also gave an IC50 (second compound 0.0949 µM) of under 31.6 nM, an IC50 (second compound 0.3 µM) of under 31.6 nM and a viability, T/C [1] of 1.02%. It also gave a viability, T/C [2] of 1.19%, a viability, T/C [3] of 1.59% and a viability, T/C [4] of 0.56%. The viability, T/C [5] was 0.45%, the viability, T/C [6] was 0.65% and the viability, T/C [7] was 1.86%. The viability, T/C [8] was 0.7%, the viability, T/C [9] was 1.15% and the viability, T/C [10] was 0.42%. For the same molecule, the viability, T/C [11] was 0.4%, the viability, T/C [12] was 0.58% and the viability, T/C [13] was 1.1%. It also gave a viability, T/C [14] of 1.24%, a viability, T/C [15] of 0.67% and a viability, T/C [16] of 1.07%. For the same molecule, the viability, T/C [17] was 0.38%, the viability, T/C [18] was 0.47% and the viability, T/C [19] was 0.72%. The viability, T/C [20] was 0.9%, the viability, T/C [21] was 0.83% and the viability, T/C [22] was 0.52%. For the same molecule, the viability, T/C [23] was 0.66%, the viability, T/C [24] was 1.17% and the viability, T/C [25] was 1%. It also gave a viability, T/C [26] of 0.97%, a viability, T/C [27] of 0.71% and a viability, T/C [28] of 0.83%. The viability, T/C [29] was 1.25% and the viability, T/C [30] was 0.81%.
With `COc1cc(C)[nH]c(=O)c1CN1CCc2c(Cl)cc(C(OC)C3COC3)c(Cl)c2C1=O` (stereo not given) + CC[C@@]1(O)C(=O)OCc2c1cc1n(c2=O)Cc2cc3c(CN(C)C)c(O)ccc3nc2-1 the IC50 (second compound 0.003 µM) was over 10000 nM, the IC50 (second compound 0.00949 µM) was 44.3 nM and the IC50 (second compound 0.03 µM) was under 31.6 nM. It also gave an IC50 (second compound 0.0949 µM) of under 31.6 nM, an IC50 (second compound 0.3 µM) of under 31.6 nM and a viability, T/C [1] of 97.8%. The viability, T/C [2] was 94.2%, the viability, T/C [3] was 94.5% and the viability, T/C [4] was 80.2%. It also gave a viability, T/C [5] of 84.6%, a viability, T/C [6] of 79.1% and a viability, T/C [7] of 61.2%. For the same molecule, the viability, T/C [8] was 23.1%, the viability, T/C [9] was 19.7% and the viability, T/C [10] was 23.1%. The viability, T/C [11] was 20.5%, the viability, T/C [12] was 17.4% and the viability, T/C [13] was 2.26%. For the same molecule, the viability, T/C [14] was 1.33%, the viability, T/C [15] was 1.49% and the viability, T/C [16] was 1.03%. For the same molecule, the viability, T/C [17] was 0.89%, the viability, T/C [18] was 1.35% and the viability, T/C [19] was 1.49%. It also gave a viability, T/C [20] of 1.42%, a viability, T/C [21] of 1.65% and a viability, T/C [22] of 1.41%. The viability, T/C [23] was 1.22%, the viability, T/C [24] was 0.83% and the viability, T/C [25] was 1.31%. The viability, T/C [26] was 1.63%, the viability, T/C [27] was 1.29% and the viability, T/C [28] was 1.18%. It also gave a viability, T/C [29] of 1.75% and a viability, T/C [30] of 0.92%.
For `Cc1cc(C)c(CNC(=O)c2cc(-c3ccc(CN4CCOCC4)cc3)cc3c2cnn3C2CCCC2)c(=O)[nH]1` + CC[C@@]1(O)C(=O)OCc2c1cc1n(c2=O)Cc2cc3c(CN(C)C)c(O)ccc3nc2-1, the IC50 (second compound 0.003 µM) was 1890 nM, the IC50 (second compound 0.00949 µM) was under 31.6 nM and the IC50 (second compound 0.03 µM) was under 31.6 nM. For the same molecule, the IC50 (second compound 0.0949 µM) was under 31.6 nM, the IC50 (second compound 0.3 µM) was under 31.6 nM and the viability, T/C [1] was 83.3%. It also gave a viability, T/C [2] of 78.6%, a viability, T/C [3] of 74.2% and a viability, T/C [4] of 58.4%. The viability, T/C [5] was 42.8%, the viability, T/C [6] was 24.6% and the viability, T/C [7] was 10.6%. The viability, T/C [8] was 8.26%, the viability, T/C [9] was 5.43% and the viability, T/C [10] was 3.96%. For the same molecule, the viability, T/C [11] was 2.11%, the viability, T/C [12] was 1.31% and the viability, T/C [13] was 0.94%. It also gave a viability, T/C [14] of 1.14%, a viability, T/C [15] of 1.13% and a viability, T/C [16] of 0.98%. For the same molecule, the viability, T/C [17] was 1.02%, the viability, T/C [18] was 0.92% and the viability, T/C [19] was 1.01%. The viability, T/C [20] was 1.06%, the viability, T/C [21] was 0.94% and the viability, T/C [22] was 1.17%. It also gave a viability, T/C [23] of 1.46%, a viability, T/C [24] of 1.47% and a viability, T/C [25] of 1.21%. It also gave a viability, T/C [26] of 1.42%, a viability, T/C [27] of 1.39% and a viability, T/C [28] of 1.4%. For the same molecule, the viability, T/C [29] was 1.35% and the viability, T/C [30] was 1.52%.
`[2H]c1nc(C)nc([2H])c1-c1cc(NC[C@@H](C)c2cccc3c(C(=O)NC)ccnc23)ncn1` + CC[C@@]1(O)C(=O)OCc2c1cc1n(c2=O)Cc2cc3c(CN(C)C)c(O)ccc3nc2-1 was tested, and the IC50 (second compound 0.003 µM) was 8430 nM, the IC50 (second compound 0.00949 µM) was under 31.6 nM and the IC50 (second compound 0.03 µM) was under 31.6 nM. For the same molecule, the IC50 (second compound 0.0949 µM) was under 31.6 nM, the IC50 (second compound 0.3 µM) was under 31.6 nM and the viability, T/C [1] was 65.3%. For the same molecule, the viability, T/C [2] was 63.1%, the viability, T/C [3] was 49.7% and the viability, T/C [4] was 65.6%. For the same molecule, the viability, T/C [5] was 51%, the viability, T/C [6] was 48.1% and the viability, T/C [7] was 4.11%. For the same molecule, the viability, T/C [8] was 1.98%, the viability, T/C [9] was 1.95% and the viability, T/C [10] was 1.63%. The viability, T/C [11] was 2.52%, the viability, T/C [12] was 1.58% and the viability, T/C [13] was 0.8%. The viability, T/C [14] was 1.15%, the viability, T/C [15] was 1.33% and the viability, T/C [16] was 0.93%. The viability, T/C [17] was 1.82%, the viability, T/C [18] was 1.19% and the viability, T/C [19] was 1.46%. It also gave a viability, T/C [20] of 0.76%, a viability, T/C [21] of 1.4% and a viability, T/C [22] of 0.83%. The viability, T/C [23] was 1.25%, the viability, T/C [24] was 1.69% and the viability, T/C [25] was 1.19%. For the same molecule, the viability, T/C [26] was 1.37%, the viability, T/C [27] was 0.88% and the viability, T/C [28] was 1.14%. The viability, T/C [29] was 0.92% and the viability, T/C [30] was 0.98%.
